Values of other authors as cited in patent publication US20220054467A1, “TREATMENT OF PSORIASIS WITH TOPICAL TAPINAROF-TAZAROTENE COMBINATION COMPOSITIONS” (Sol-Gel Technologies Ltd., priority 2019, published 2022).
Read-outs that look alike come from different tables or passages of the source.

What was measured:
[1] = system: interleukin-6 and interleukin-17A; settings: mouse models
[2] = as a single drug; placebo 20.2%
[3] = system: interleukin-6 and interleukin-17A; settings: in vitro human skin
[4] = 1% tapinarof arm vs. the 0.5% arm or vehicle

In the case of `CC(C)c1c(O)cc(/C=C/c2ccccc2)cc1O` [Tapinarof, 3,5-dihydroxy-4-isopropyl-trans-stilbene], the efficacy (plaque psoriasis; [4]) is listed as “higher efficacy”, the onset of action (plaque psoriasis; [4]) is listed as “quicker onset of action” and the “most frequent adverse events” value (plaque psoriasis; topical cream, clinical studies) is listed as “folliculitis and contact dermatitis”. The “effect on proinflammatory mediators, including interleukin-6 and interleukin-17A” value [1] was “inhibit specific proinflammatory mediators”, the “effect on skin barrier function” value [1] was “enhance skin barrier function” and the adverse effects [2] was 44.5%. The “effect on proinflammatory mediators, including interleukin-6 and interleukin-17A” value [3] was “inhibit specific proinflammatory mediators” and the “effect on skin barrier function” value [3] was “enhance skin barrier function”.

In the case of `C=C1/C(=C\C=C2/CCC[C@]3(C)[C@@H]([C@H](C)/C=C/[C@@H](O)C4CC4)CC[C@@H]23)C[C@@H](O)C[C@@H]1O` [calcipotriene], the adverse effects [2] is given as 19.5%.
